According to ChEMBL document CHEMBL3991601, “The target landscape of clinical kinase drugs” (Science, 2017):
Activity calls are given as the source filed them. For most assays here, no stated cut-off is given here; in the data, actives have a measured Kd and inactives only a lower limit.

Assays:
[1] = target: Actin-related protein 2 (Homo sapiens, UniProt P61160)
[2] = target: T1, Receptor-type tyrosine-protein kinase FLT3 (Homo sapiens, UniProt P36888)
T1 sequence (P36888 whole entry): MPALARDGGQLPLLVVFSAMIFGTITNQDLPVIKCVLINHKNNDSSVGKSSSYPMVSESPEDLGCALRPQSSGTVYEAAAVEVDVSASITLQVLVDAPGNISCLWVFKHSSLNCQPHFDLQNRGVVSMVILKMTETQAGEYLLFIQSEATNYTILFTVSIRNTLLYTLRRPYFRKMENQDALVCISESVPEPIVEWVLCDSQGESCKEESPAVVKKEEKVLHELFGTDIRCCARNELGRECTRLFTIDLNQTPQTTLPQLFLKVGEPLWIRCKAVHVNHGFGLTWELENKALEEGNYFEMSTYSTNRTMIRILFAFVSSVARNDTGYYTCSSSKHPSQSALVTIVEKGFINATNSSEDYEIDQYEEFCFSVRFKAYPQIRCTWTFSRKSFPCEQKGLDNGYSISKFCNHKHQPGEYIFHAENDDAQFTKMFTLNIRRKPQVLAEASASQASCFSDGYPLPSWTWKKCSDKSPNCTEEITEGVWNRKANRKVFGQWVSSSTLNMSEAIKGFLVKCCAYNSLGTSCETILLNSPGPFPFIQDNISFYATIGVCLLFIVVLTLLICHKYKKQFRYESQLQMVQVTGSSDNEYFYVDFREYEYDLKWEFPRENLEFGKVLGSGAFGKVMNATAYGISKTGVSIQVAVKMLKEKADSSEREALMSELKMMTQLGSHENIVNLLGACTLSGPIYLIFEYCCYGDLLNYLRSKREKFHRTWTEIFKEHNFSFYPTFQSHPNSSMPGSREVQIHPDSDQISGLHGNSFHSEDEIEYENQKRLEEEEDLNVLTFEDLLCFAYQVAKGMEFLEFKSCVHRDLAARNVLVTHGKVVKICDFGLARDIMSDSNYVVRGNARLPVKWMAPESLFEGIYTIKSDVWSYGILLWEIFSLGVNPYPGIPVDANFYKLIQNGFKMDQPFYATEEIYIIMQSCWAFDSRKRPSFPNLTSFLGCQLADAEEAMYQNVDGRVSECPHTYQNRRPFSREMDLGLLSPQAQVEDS

[3] = target: Casein kinase I isoform gamma-1 (Homo sapiens, UniProt Q9HCP0)
Casein kinase I isoform gamma-1, sequence (Q9HCP0 whole entry, canonical isoform): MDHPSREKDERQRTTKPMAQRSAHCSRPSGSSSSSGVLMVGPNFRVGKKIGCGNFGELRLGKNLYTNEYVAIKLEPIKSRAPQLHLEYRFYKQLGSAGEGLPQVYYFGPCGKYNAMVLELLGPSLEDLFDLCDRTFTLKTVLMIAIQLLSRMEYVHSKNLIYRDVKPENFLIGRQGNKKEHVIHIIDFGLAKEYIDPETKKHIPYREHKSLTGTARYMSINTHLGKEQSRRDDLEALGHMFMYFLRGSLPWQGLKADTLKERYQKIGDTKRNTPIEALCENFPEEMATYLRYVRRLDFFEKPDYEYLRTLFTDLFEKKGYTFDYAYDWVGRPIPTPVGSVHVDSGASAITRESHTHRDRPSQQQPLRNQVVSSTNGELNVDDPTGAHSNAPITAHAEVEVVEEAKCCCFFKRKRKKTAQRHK

[4] = target: Myosin-14 (Homo sapiens, UniProt Q7Z406)
Myosin-14, sequence (Q7Z406 whole entry): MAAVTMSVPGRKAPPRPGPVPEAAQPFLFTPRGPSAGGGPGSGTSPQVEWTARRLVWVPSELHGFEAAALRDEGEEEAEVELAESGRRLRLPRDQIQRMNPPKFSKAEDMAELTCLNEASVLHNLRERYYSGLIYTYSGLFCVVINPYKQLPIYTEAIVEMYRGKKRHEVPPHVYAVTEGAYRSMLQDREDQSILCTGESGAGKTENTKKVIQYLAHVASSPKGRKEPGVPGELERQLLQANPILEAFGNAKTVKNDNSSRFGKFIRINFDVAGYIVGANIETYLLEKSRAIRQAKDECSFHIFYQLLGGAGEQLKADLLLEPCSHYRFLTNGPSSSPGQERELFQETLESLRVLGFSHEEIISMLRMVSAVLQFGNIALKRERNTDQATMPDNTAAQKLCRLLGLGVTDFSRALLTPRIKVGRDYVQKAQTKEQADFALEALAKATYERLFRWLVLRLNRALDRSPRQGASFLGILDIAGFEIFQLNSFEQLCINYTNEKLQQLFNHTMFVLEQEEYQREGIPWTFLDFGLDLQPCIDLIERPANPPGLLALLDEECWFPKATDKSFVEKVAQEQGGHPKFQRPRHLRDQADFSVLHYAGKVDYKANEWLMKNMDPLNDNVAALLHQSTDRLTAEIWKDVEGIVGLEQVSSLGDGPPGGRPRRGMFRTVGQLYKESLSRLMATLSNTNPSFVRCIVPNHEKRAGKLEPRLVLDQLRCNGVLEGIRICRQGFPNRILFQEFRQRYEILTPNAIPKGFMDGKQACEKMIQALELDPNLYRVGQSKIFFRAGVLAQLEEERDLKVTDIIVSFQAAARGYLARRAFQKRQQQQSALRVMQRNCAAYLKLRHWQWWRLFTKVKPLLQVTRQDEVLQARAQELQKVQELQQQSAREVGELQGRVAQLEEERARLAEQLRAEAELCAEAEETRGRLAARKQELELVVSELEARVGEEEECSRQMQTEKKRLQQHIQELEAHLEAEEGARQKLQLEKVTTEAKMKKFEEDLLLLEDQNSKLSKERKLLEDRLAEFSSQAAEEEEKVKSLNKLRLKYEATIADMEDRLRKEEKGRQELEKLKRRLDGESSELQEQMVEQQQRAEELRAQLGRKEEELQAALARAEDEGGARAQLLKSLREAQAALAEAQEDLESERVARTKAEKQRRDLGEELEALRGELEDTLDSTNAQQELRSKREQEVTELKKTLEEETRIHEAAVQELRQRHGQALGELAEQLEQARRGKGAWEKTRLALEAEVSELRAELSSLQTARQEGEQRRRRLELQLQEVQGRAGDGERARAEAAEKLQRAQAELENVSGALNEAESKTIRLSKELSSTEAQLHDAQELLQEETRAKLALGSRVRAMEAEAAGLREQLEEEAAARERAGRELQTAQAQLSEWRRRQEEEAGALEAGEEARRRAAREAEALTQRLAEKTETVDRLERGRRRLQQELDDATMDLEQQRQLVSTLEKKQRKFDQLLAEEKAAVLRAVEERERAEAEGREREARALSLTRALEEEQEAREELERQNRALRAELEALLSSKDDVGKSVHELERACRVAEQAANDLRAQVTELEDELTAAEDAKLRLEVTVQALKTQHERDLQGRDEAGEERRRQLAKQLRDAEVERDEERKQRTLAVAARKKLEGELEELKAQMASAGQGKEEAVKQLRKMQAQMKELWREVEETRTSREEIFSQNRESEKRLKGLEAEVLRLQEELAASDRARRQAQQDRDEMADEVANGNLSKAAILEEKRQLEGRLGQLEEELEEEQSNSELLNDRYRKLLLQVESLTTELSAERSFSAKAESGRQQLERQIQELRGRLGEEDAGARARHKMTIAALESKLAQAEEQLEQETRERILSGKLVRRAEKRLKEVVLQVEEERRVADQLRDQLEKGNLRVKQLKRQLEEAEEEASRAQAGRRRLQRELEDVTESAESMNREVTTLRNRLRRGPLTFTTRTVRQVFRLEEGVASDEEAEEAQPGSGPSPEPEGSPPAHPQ

[5] = target: GTP-binding nuclear protein Ran (Homo sapiens, UniProt P62826)
[6] = target: Cyclin-dependent kinase 6 (Homo sapiens, UniProt Q00534)
Cyclin-dependent kinase 6, sequence (Q00534 whole entry): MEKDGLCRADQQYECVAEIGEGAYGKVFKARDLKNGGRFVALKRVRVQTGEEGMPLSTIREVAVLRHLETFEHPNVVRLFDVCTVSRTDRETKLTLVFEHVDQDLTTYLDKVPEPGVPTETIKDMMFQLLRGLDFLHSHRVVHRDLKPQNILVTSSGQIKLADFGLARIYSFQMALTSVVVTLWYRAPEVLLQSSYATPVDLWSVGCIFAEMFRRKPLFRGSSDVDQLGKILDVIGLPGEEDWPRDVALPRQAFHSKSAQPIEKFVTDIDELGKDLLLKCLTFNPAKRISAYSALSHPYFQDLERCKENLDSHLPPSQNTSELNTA

[7] = target: BMP-2-inducible protein kinase (Homo sapiens, UniProt Q9NSY1)
[8] = target: Receptor-interacting serine/threonine-protein kinase 2 (Homo sapiens, UniProt O43353)
Receptor-interacting serine/threonine-protein kinase 2, sequence (O43353 whole entry): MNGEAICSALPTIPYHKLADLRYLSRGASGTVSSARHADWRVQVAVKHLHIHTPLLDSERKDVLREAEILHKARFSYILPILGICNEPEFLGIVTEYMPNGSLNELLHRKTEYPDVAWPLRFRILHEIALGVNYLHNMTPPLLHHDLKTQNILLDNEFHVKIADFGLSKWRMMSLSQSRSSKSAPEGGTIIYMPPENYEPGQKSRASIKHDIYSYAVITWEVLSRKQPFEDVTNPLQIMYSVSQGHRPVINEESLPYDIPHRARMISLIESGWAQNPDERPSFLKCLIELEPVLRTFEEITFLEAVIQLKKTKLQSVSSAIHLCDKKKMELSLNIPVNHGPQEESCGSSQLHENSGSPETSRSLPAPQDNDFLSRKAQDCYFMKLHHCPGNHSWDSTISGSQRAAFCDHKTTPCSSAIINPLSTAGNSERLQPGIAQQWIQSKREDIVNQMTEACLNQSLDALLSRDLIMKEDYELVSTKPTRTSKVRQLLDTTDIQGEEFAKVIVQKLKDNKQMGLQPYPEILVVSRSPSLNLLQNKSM

[9] = target: Calcium/calmodulin-dependent protein kinase type II subunit delta (Homo sapiens, UniProt Q13557)
Calcium/calmodulin-dependent protein kinase type II subunit delta, sequence (Q13557 whole entry): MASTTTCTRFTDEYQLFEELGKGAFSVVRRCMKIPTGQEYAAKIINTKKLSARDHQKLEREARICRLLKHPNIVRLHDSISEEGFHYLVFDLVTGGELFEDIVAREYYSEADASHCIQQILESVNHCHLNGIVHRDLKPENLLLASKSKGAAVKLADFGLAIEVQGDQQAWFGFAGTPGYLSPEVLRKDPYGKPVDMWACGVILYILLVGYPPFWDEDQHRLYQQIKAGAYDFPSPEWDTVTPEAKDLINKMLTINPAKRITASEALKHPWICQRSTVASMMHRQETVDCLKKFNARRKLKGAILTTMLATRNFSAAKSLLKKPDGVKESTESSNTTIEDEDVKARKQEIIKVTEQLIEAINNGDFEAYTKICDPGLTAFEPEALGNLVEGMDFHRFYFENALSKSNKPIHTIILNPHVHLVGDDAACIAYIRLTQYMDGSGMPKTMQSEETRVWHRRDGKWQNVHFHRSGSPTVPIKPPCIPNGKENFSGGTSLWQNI

[10] = target: Protein kinase C alpha type (Homo sapiens, UniProt P17252)
[11] = target: Ras-related protein Rab-6A (Homo sapiens, UniProt P20340)
Ras-related protein Rab-6A, sequence (P20340 whole entry): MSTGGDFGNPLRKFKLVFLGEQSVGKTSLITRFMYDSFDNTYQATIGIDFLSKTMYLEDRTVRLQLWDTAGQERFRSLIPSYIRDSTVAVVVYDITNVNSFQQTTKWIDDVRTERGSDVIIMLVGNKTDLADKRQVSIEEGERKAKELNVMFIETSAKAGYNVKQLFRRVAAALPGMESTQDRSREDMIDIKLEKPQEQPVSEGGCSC

[12] = target: T2, Calcium/calmodulin-dependent protein kinase type IV (Homo sapiens, UniProt Q16566)
T2 sequence (Q16566 whole entry): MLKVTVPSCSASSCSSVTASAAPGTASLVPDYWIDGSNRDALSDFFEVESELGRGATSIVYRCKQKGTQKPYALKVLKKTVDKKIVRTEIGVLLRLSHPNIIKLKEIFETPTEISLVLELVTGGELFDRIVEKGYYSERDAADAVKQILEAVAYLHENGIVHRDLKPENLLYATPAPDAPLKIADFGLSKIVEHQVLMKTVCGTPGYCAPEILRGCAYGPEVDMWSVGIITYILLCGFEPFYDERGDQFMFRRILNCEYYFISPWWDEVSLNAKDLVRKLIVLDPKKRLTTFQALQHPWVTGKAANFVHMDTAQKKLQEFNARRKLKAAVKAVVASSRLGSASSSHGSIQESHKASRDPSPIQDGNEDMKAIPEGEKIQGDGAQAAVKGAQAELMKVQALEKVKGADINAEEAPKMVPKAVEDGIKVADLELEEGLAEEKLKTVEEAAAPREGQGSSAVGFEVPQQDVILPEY

[13] = target: T3, Peroxisomal acyl-coenzyme A oxidase 3 (Homo sapiens, UniProt O15254)
T3 sequence (O15254 whole entry): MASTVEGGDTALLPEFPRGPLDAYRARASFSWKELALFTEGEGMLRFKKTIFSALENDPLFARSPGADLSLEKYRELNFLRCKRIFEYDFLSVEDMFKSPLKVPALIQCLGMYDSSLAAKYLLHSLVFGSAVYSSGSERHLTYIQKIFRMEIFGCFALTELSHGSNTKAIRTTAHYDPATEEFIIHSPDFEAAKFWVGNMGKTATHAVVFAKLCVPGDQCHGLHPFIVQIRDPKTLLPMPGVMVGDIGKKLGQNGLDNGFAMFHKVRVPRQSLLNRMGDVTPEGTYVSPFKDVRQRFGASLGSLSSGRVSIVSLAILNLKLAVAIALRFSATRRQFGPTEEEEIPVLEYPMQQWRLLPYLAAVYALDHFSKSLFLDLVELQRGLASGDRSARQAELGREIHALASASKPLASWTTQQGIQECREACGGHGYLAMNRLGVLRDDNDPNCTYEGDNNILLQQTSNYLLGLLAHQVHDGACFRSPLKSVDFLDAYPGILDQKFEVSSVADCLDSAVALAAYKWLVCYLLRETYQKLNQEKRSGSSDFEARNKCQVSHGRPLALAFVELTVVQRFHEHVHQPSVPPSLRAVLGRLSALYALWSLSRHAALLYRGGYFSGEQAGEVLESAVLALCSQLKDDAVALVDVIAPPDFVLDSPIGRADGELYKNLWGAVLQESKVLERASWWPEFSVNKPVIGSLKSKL

Measured: Kd

CO[C@H]1C[C@@H]2CC[C@@H](C)[C@@](O)(O2)C(=O)C(=O)N2CCCC[C@H]2C(=O)O[C@H]([C@H](C)C[C@@H]2CC[C@@H](OCCO)[C@H](OC)C2)CC(=O)[C@H](C)/C=C(\C)[C@@H](O)[C@@H](OC)C(=O)[C@H](C)C[C@H](C)/C=C/C=C/C=C/1C [EVEROLIMUS]
inactive: [1] > 30 µM | [2] > 30 µM | [3] > 30 µM | [4] > 30 µM | [5] > 30 µM | [6] > 30 µM | [7] > 30 µM | [8] > 30 µM | [9] > 30 µM | [10] > 30 µM | [11] > 30 µM | [12] > 30 µM | [13] > 30 µM

CC(C)Nc1cc(-c2c[nH]c(C(=O)N[C@H](CO)c3cccc(Cl)c3)c2)c(Cl)cn1 [ULIXERTINIB]
inactive: [1] > 30 µM | [2] > 30 µM | [3] > 30 µM | [4] > 30 µM | [5] > 30 µM | [6] > 30 µM | [7] > 30 µM | [8] > 30 µM | [9] > 30 µM | [10] > 30 µM | [11] > 30 µM | [12] > 30 µM | [13] > 30 µM
